Patent US12398132B2, “Derivatives of 4-(imidazo[1,2-a]pyridin-3-yl)-n-(pyridinyl)pyrimidin-2-amine as therapeutic agents” (AUCENTRA THERAPEUTICS PTY LTD, priority 2019, dated 2025)
Numbering of substitutions follows the chain as printed. Where two headings read alike, the source gives them in different places.

Assays:
CDK4/D1 = CDK4/D1 (Homo sapiens, UniProt P11802); experiment: ADP Glo kinase assay, CDK4/D1; type: biochemical; details: CDK4D1; for remaining activity at 10 µM: compound at 10 μM, read-out: residual enzymatic activity (%) at 10 μM; for remaining activity at 1 µM: compound at 1 μM (values marked *), read-out: residual enzymatic activity (%) at 1 μM*
Protocol: (§1) Inhibition of FLT3(WT), FLT3(ITD) and FLT3(D835Y) and CDKs were determined using ADP Glo Kinase assays (Promega Corporation, Madison, WI, USA). […] Similarly, kinase reaction for CDK4/D1 and CDK6/D3 was performed with reaction buffer (40 nM Tris base pH 7.5, 20 mM MgCl2, 0.4 mM DTT), 0.1 mg/ml BSA and RB-CTF substrate (retinoblastoma protein1 C-terminal fraction). For CDK9/CyclinT1, the kinase reaction was performed with the standard assay buffer and Kinase Dilution Buffer and RBER-IRStide substrate. Half-maximal inhibition (IC50) values were calculated using a 4-parameter logistic non-linear regression model with Graphpad prism (Version 6.0). Apparent inhibition constants (Ki) values were calculated from Km (ATP) and IC50 values for the respective kinases.

FLT3(D835Y) = biological target: T1, FLT3(D835Y) (Homo sapiens, UniProt P36888, D835Y); experiment: ADP Glo kinase assay, FLT3(D835Y); type: biochemical; details: apparent Ki calculated from Km (ATP) and IC50, read-out: FLT3 inhibition Ki
T1 sequence (P36888 27-993 D835Y): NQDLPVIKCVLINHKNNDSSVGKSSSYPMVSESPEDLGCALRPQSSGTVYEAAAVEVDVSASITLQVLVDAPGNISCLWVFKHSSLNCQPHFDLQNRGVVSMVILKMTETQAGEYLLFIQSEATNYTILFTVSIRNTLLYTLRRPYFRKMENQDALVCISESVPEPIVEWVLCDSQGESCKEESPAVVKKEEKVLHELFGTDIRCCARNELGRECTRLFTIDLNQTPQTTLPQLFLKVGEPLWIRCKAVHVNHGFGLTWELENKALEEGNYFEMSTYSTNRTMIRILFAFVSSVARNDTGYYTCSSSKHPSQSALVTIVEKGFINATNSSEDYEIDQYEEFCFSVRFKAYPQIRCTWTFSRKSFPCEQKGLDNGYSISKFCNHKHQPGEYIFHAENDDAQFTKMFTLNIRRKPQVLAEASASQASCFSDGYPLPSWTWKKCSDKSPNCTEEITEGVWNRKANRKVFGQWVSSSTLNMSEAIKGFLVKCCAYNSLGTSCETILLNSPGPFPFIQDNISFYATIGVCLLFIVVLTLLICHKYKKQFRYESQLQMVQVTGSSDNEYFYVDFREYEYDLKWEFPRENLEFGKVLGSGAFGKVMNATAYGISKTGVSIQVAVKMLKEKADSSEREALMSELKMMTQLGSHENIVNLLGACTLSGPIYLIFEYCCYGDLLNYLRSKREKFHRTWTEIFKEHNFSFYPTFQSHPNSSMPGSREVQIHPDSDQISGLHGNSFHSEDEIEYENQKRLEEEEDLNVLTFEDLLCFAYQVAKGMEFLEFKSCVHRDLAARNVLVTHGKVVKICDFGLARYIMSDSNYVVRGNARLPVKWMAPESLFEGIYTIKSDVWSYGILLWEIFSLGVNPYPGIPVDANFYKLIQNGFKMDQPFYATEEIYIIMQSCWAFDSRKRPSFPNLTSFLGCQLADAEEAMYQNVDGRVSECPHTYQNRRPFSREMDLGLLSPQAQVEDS
Protocol: (§2) Inhibition of FLT3(WT), FLT3(ITD) and FLT3(D835Y) and CDKs were determined using ADP Glo Kinase assays (Promega Corporation, Madison, WI, USA). […] The kinase reactions are run for an optimised time period (FLT3-WT: 120 min, FLT3-ITD: 80 min, FLT3-D835Y: 100 min) at room temperature and then the reaction was stopped by adding 5 μL of ADP Glo reagent. […] Positive and negative controls were performed in 0.5% DMSO in the presence and absence of each FLT3 kinase, respectively. […] Half-maximal inhibition (IC50) values were calculated using a 4-parameter logistic non-linear regression model with Graphpad prism (Version 6.0). Apparent inhibition constants (Ki) values were calculated from Km (ATP) and IC50 values for the respective kinases.

CDK9/CyclinT1 = CDK9/CyclinT1 (Homo sapiens, UniProt P50750); experiment: ADP Glo kinase assay, CDK9/CyclinT1; type: biochemical; details: CDK9T1; for remaining activity at 10 µM: compound at 10 μM, read-out: residual enzymatic activity (%) at 10 μM
Protocol: as §1

CDK6/D3 = CDK6/D3 (Homo sapiens, UniProt Q00534); experiment: ADP Glo kinase assay, CDK6/D3; type: biochemical; details: CDK6D3; for remaining activity at 10 µM: compound at 10 μM, read-out: residual enzymatic activity (%) at 10 μM; for remaining activity at 1 µM: compound at 1 μM (values marked *), read-out: residual enzymatic activity (%) at 1 μM*
Protocol: as §1

FLT3(ITD) = biological target: T2, FLT3(ITD) (Homo sapiens, UniProt P36888); experiment: ADP Glo kinase assay, FLT3(ITD); type: biochemical; details: apparent Ki calculated from Km (ATP) and IC50, read-out: FLT3 inhibition Ki
T2 sequence (P36888 1-993): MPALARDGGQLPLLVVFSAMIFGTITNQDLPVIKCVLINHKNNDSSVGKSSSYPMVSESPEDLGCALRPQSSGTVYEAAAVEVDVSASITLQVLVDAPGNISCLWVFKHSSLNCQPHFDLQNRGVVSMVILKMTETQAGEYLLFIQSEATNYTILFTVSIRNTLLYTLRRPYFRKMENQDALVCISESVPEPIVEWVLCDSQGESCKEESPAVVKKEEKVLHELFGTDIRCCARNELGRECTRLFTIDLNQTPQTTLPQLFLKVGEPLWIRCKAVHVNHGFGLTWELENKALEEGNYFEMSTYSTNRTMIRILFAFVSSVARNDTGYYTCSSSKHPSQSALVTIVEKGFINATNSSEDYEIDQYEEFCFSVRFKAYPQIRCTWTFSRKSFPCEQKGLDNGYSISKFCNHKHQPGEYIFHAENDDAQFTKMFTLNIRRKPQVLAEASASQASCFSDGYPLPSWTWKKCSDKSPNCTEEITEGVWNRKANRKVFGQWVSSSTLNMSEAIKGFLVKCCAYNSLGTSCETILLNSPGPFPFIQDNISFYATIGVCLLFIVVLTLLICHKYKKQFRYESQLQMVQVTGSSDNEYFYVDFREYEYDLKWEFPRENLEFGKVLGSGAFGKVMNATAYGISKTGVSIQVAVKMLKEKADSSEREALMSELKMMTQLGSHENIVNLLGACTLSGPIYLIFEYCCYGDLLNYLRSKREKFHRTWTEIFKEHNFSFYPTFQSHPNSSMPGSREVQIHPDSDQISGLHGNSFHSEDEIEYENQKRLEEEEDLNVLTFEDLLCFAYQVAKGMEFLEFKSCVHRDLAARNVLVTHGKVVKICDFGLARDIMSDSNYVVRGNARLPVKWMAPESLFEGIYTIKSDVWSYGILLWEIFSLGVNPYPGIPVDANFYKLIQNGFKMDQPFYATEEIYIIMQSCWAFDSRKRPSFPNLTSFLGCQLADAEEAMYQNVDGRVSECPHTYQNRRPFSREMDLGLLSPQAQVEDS
Protocol: as §2

CDK1B = CDK1B (Homo sapiens, UniProt P06493)
FLT3(WT) = biological target: T3, FLT3(WT) (Homo sapiens, UniProt P36888); experiment: ADP Glo kinase assay, FLT3(WT); type: biochemical; details: for remaining activity at 1 µM: compound at 1 μM, read-out: residual enzymatic activity (%) at 1 μM; for Ki: apparent Ki calculated from Km (ATP) and IC50, read-out: FLT3 inhibition Ki
T3 sequence (P36888 27-993): T1 sequence (P36888 27-993 D835Y) with Y809D
Protocol: as §2

CDK7HMAT1 = CDK7HMAT1 (Homo sapiens, UniProt P50613); details: 10 µM;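 also: kinase activity measured with an ADP-Glo luminescent kinase assay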
MV-4-11 = experiment: Proliferation assay (resazurin/MTT), MV-4-11; type: cell-based; details: Homo sapiens, MV4-11, read-out: 72 h Growth inhibition GI50, MV-4-11 cells
CDK2E1 = CDK2E1 (Homo sapiens, UniProt P24941); details: 1 µM
U937 = experiment: Proliferation assay (resazurin/MTT), U937; type: cell-based; details: Homo sapiens, U-937, read-out: 72 h Growth inhibition GI50, U937 cells

Sequence of CDK7HMAT1 (P50613 whole entry): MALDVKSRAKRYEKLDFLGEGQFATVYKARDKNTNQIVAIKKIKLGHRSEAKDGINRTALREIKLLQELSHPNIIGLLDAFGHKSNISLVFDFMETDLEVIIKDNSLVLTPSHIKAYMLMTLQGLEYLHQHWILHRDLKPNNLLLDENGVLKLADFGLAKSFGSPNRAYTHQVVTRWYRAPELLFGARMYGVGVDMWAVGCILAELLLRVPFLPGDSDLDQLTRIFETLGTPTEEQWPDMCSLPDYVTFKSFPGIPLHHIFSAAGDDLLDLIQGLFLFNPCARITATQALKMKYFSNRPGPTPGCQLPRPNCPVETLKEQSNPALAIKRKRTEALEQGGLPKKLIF
Sequence of CDK7HMAT1 (P51946 whole entry partner): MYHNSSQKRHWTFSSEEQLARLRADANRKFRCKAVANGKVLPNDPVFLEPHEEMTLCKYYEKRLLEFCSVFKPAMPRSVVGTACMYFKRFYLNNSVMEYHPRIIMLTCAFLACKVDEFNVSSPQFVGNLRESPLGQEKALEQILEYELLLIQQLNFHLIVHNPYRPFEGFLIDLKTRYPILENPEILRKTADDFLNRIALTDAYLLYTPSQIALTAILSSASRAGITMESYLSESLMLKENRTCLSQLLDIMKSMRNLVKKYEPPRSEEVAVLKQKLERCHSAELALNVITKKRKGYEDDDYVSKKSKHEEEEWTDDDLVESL
Sequence of CDK7HMAT1 (P51948 whole entry partner): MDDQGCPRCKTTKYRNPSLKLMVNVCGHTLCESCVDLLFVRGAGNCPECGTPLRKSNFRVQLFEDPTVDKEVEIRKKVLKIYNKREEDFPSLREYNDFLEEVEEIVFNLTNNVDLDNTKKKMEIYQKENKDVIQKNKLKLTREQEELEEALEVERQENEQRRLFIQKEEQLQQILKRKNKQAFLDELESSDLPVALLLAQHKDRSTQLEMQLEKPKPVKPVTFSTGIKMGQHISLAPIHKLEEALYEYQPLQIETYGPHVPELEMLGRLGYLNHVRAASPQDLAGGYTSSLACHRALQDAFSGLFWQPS
Sequence of CDK1B (P06493 whole entry): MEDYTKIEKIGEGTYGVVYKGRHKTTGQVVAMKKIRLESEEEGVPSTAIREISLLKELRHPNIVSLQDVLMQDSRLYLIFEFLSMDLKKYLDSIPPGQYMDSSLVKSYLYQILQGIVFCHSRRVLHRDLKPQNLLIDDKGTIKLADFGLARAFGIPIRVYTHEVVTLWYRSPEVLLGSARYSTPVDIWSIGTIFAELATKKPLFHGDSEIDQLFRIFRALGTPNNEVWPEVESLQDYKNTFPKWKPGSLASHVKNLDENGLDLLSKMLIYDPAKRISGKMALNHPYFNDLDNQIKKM
Sequence of CDK1B (P14635 whole entry partner): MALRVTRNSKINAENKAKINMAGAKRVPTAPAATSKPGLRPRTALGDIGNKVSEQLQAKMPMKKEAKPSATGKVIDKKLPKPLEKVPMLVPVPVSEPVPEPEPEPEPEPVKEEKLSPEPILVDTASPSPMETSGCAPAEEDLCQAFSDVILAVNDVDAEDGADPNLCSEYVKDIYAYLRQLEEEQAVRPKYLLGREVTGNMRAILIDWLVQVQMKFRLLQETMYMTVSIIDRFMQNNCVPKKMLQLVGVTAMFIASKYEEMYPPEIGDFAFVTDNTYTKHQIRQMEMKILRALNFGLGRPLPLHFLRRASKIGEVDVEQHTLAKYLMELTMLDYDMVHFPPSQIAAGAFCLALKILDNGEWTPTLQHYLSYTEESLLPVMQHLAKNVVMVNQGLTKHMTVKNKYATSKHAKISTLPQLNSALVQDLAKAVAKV
Sequence of CDK6/D3 (Q00534 whole entry, species assumed): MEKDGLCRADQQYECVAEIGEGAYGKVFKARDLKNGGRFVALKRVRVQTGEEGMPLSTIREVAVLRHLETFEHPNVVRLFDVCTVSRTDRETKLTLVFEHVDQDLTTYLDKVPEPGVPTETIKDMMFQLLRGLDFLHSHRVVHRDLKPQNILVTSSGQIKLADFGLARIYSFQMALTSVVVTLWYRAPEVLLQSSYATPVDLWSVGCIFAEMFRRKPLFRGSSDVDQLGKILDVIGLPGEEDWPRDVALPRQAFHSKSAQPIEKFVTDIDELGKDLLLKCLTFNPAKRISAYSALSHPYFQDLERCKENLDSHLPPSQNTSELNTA
Sequence of CDK6/D3 (P30281 whole entry partner, species assumed): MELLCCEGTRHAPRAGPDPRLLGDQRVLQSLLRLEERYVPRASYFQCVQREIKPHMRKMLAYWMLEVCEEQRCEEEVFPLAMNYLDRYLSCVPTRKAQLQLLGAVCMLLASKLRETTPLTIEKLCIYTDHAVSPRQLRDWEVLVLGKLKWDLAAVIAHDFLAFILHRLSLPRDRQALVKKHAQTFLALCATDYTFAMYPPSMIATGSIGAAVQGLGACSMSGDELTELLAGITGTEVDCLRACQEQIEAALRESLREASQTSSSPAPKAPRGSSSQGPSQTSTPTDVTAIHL
Sequence of CDK4/D1 (P11802 whole entry, species assumed): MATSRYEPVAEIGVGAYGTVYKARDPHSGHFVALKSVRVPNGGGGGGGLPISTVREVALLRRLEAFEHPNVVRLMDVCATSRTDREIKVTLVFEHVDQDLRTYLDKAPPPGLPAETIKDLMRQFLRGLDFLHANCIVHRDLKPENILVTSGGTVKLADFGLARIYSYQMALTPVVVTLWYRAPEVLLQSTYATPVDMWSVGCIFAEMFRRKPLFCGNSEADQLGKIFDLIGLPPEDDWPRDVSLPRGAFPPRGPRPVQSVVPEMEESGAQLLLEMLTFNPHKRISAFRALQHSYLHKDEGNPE
Sequence of CDK4/D1 (P24385 whole entry partner, species assumed): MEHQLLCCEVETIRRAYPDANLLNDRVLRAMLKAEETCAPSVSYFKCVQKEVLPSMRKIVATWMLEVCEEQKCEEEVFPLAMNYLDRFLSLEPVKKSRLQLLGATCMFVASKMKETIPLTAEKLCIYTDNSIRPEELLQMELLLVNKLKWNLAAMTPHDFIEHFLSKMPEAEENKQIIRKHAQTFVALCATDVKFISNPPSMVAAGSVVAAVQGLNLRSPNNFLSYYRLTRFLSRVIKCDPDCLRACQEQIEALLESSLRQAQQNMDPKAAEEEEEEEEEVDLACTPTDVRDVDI
Sequence of CDK9/CyclinT1 (P50750 whole entry, species assumed): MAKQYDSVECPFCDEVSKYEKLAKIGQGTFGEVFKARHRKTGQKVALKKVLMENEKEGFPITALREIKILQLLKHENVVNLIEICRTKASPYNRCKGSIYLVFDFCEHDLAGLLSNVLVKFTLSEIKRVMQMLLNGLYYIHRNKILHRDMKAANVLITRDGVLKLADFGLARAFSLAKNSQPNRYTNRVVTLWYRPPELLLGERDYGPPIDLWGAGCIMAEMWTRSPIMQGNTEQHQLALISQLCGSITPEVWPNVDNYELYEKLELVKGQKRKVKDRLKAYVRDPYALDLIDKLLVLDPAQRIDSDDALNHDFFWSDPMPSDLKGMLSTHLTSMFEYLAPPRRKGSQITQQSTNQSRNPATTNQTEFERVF
Sequence of CDK9/CyclinT1 (O60563 whole entry partner, species assumed): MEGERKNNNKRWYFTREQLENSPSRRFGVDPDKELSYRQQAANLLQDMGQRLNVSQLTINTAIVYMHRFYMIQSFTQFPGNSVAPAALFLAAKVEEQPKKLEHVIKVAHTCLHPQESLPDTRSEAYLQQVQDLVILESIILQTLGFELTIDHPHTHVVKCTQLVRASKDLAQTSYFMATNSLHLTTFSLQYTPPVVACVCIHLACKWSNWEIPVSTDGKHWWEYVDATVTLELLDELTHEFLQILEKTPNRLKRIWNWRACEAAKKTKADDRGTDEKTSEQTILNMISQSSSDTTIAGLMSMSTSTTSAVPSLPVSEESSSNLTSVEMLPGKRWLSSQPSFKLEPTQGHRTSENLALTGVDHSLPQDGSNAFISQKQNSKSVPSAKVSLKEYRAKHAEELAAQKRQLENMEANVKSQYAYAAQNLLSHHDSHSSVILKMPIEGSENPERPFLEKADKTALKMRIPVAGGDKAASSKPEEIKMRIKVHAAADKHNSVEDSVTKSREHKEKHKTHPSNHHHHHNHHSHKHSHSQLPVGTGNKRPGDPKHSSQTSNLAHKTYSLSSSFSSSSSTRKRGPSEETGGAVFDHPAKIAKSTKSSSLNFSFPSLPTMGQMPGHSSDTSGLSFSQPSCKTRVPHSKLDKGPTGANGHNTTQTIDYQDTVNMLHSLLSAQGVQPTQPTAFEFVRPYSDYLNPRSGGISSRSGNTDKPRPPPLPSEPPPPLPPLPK

| SMILES | remaining activity at 10 µM (CDK4/D1) | Ki (FLT3(D835Y)) | remaining activity at 10 µM (CDK9/CyclinT1) | remaining activity at 10 µM (CDK6/D3) | Ki (FLT3(ITD)) | activity (CDK1B; 10 µM) | remaining activity at 1 µM (FLT3(WT)) | activity (CDK7HMAT1) | GI50 (MV-4-11) | activity (CDK2E1) | GI50 (U937) | Ki (FLT3(WT)) | remaining activity at 1 µM (CDK4/D1) | Ki (CDK9/CyclinT1; apparent Ki calculated from Km (ATP) and IC50, read-out: CDK inhibition Ki) | remaining activity at 1 µM (CDK6/D3) | activity (CDK1B; 1 µM) |
| --- | --- | --- | --- | --- | --- | --- | --- | --- | --- | --- | --- | --- | --- | --- | --- | --- |
| c1ccn2c(-c3ccnc(Nc4ccc(N5CCCCC5)cn4)n3)cnc2c1 [Cmpd 5, 4-(Imidazo[1,2-a]pyridin-3-yl)-N-(5-(piperidin-1-yl)pyridin-2-yl)pyrimidin-2-amine] | 53% | 45 nM | 28% | 23% | 63 nM | 48% | 45% | 84% | 75 nM | 81% | 6200 nM |  |  |  |  |  |
| CC(=O)N1CCN(c2ccc(Nc3nccc(-c4cnc5ccc(Cl)cn45)n3)nc2)CC1 [Cmpd 9, 1-(4-(6-((4-(6-Chloroimidazo[1,2-a]pyridin-3-yl)pyrimidin-2-yl)amino)pyridin-3-yl)piperazin-1-yl)ethan-1-one] | 46% | 9 nM | 28% | 32% | 30 nM | 94% |  | 76% | 15 nM | 64% | 797 nM | 117 nM |  |  |  |  |
| CC(=O)N1CCN(c2ccc(Nc3nccc(-c4cnc5ccc(Br)cn45)n3)nc2)CC1 [Cmpd 10, 1-(4-(6-((4-(6-Bromoimidazo[1,2-a]pyridin-3-yl)pyrimidin-2-yl)amino)pyridin-3-yl)piperazin-1-yl)ethan-1-one] | 34% | 10 nM | 23% | 36% | 6 nM | 41% |  | 55% | 2 nM | 58% | 3130 nM | 83 nM |  |  |  |  |
| CC(=O)N1CCN(c2ccc(Nc3nccc(-c4cnc5ccc(-c6cncnc6)cn45)n3)nc2)CC1 [Cmpd 16, 1-(4-(6-((4-(6-(Pyrimidin-5-yl)imidazo[1,2-a]pyridin-3-yl)pyrimidin-2-yl)amino)pyridin-3-yl)piperazin-1-yl)ethan-1-one] | 78% | 48 nM |  | 99% | 426 nM | 81% | 23% | 60% | 18 nM | 90% | 2920 nM |  |  |  |  |  |
| CN1CCN(c2ccc(Nc3nccc(-c4cnc5ccc(Br)cn45)n3)nc2)CC1 [Cmpd 45, 4-(6-Bromoimidazo[1,2-a]pyridin-3-yl)-N-(5-(4-methylpiperazin-1-yl)pyridin-2-yl)pyrimidin-2-amine] |  | 13 nM |  |  | 15 nM |  |  |  | 23 nM | 49% | 1960 nM | 25 nM | 34% | 111 nM | 46% | 71% |
| Brc1ccc(Nc2nccc(-c3cnc4ccccn34)n2)nc1 [Cmpd 47, N-(5-Bromopyridin-2-yl)-4-(imidazo[1,2-a]pyridin-3-yl)pyrimidin-2-amine] |  | > 500 nM | 62% |  | 489 nM |  |  |  | 545 nM | 103% | 645 nM | > 500 nM | 72% |  | 85% | 79% |
| Clc1ccc(Nc2nccc(-c3cnc4ccccn34)n2)nc1 [Cmpd 52, N-(5-Chloropyridin-2-yl)-4-(imidazo[1,2-a]pyridin-3-yl)pyrimidin-2-amine] |  | 584 nM |  |  | 421 nM |  |  |  | 213 nM | 52% | 691 nM | > 500 nM |  |  |  |  |
| Ic1ccc(Nc2nccc(-c3cnc4ccccn34)n2)nc1 [Cmpd 53, 4-(Imidazo[1,2-a]pyridin-3-yl)-N-(5-iodopyridin-2-yl)pyrimidin-2-amine] |  | > 500 nM |  |  | > 500 nM |  |  |  | 382 nM | 99% | 2500 nM | > 500 nM |  |  |  |  |
